Source: paper PMC3901304 (ACS medicinal chemistry letters, 2013)

System: T. gondii cells in culture
Test: Toxoplasma cell culture study
Format: cell-based, Toxoplasma gondii
Conditions: for T. gondii in cells at Day 4: no drug control 1140000; for T. gondii in media at Day 4: no drug control 3710000

Structure (SMILES): Nc1nc2[nH]c3cccc(Sc4ccc5ccccc5c4)c3c2c(=O)[nH]1 [Compound 1]
- T. gondii in cells at Day 4 (compound at 5 μM): 340000
- T. gondii in media at Day 4 (compound at 5 μM): 2350000

Structure (SMILES): Nc1nc2[nH]c3cccc(Sc4ccccc4)c3c2c(=O)[nH]1 [Compound 2]
- T. gondii in cells at Day 4 (compound at 5 μM): 140000
- T. gondii in media at Day 4 (compound at 5 μM): 100000

Structure (SMILES): Nc1nc2[nH]c3cccc(Sc4cccc5ccccc45)c3c2c(=O)[nH]1 [Compound 3]
- effect on T. gondii in culture compared with PM (3 at 5 μM versus PM at 3 μM): equivalent to PM at 3 μM
- T. gondii in cells at Day 4 (compound at 5 μM): <2500
- T. gondii in media at Day 4 (compound at 5 μM): <25000

Structure (SMILES): CCc1nc(N)nc(N)c1-c1ccc(Cl)cc1 [PM, pyrimethamine, reference compound]
- T. gondii in cells at Day 4 (PM at 3 μM): <2500
- T. gondii in media at Day 4 (PM at 3 μM): <25000
